What was measured:
Format in all cases: functional
[1] = tested on: Radical scavenging activity; experiment: DPPH radical scavenging activity
[2] = tested on: Radical scavenging activity; experiment: ABTS radical scavenging activity
[3] = tested on: Radical scavenging activity; experiment: Superoxide radical scavenging activity

| SMILES | IC50 [1] [µM] | IC50 [2] [nM] | IC50 [3] [µM] |
| --- | --- | --- | --- |
| O=C(O)/C=C/c1ccc(O)c(O)c1 [CAFFEIC ACID] | 31.7 | 2800 | 2.9 |
| CC1=CC(=O)[C@H](c2c(O)cc(/C=C/c3ccc(O)c(O)c3)oc2=O)[C@@H](c2ccc(O)c(O)c2)O1 [DAVALLIALACTONE] | 3.4 | 800 | 2.3 |
| CC(=O)c1c(-c2ccc(O)c(O)c2)oc2cc(/C=C/c3ccc(O)c(O)c3)oc(=O)c12 [INOSCAVIN C] | > 100 | 7800 | > 100 |
| COc1cc(/C=C/c2cc(O)c([C@H]3C(=O)C=C(C)O[C@@H]3c3ccc(O)c(O)c3)c(=O)o2)ccc1O [METHYLDAVALLIALACTONE] | 18.7 | 1500 | 5.4 |
| COc1cc(/C=C/c2cc3oc(-c4ccc(O)c(O)c4)c(C(C)=O)c3c(=O)o2)ccc1O [METHYLINOSCAVIN C] | > 100 | 12300 | > 100 |
